The values that follow come from article PMC6272674, “Selected Compounds Structurally Related to Acyclic Sesquiterpenoids and Their Antibacterial and Cytotoxic Activity” (Molecules, 2015).

One data set can be described thus: MTT viability, IEC6. Type of data set: cell-based. Conditions: rat, IEC-6 small intestine epithelial cells, 1000 µM (IC50 exceeded 1000 µM), read-out: viability ± standard deviation at 1000 µM. The procedure: (§1) Cell lines and in vitro culture conditions: The human promyelocytic leukaemia cell line HL-60 was obtained from the Centre of Molecular and Macromolecular Biology in Łódź, Poland and was cultured in RPMI 1640 medium with 20% heat-inactivated fetal bovine serum (FBS). To reduce spontaneous differentiation, the cells were never allowed to exceed a concentration of 1.0 × 10^6 cells/mL. The human keratinocyte cell line HaCaT was obtained from Cell Lines Service, Germany (CLS) and cultured in DMEM medium with 10% FBS. Human colorectal adenocarcinoma HT29 and normal epithelial IEC-6 cell lines (from ATCC) were cultured in DMEM medium with 10% FBS. The human skin melanoma cell line MEWO (from CLS) was cultured in DMEM:F12 supplemented with 2 mM L-glutamine and 10% FBS. Human fibroblasts from gingiva isolated from original tissue, HFIB-G, (from Provitro) were cultured in Quantum 333 (from Immunique). The media were supplemented with 100 U/mL penicillin and 100 µg/mL streptomycin; all media components were obtained from Life Technologies. The adherent cell lines used in the studies were seeded on microplates before they exceeded 80% of confluence. Cells were cultured at 37 °C in 5% CO2 air atmosphere/95% air atmosphere.
(§2) Cytotoxic activity: The cells (the density for HL-60 was 0.5 × 10^4 cells/100 µL, otherwise it was 1 × 10^4 cells/100 µL) were plated into each well of 96-well microtiter plates and, after their attachment to the plate surface, treated with 10 µL of the indicated concentrations of compounds for 24 h. Viability was determined by MTT assay following the treatment. MTT (3-[4.5-dimethylthiazol-2-yl]-2.5-diphenyltetrazolium bromide; Sigma, St. Louis, MO, USA) solution was added to each well and incubated for another 4 h. The resulting MTT-formazan product was dissolved by the addition of lysis buffer (20% SDS and 50% DMF). The amount of formazan was determined by measuring absorbance at 570 nm with a Synergy 2 microplate reader (BioTek, Winooski, VT, USA) operated by the Gen5 program. The experiments were conducted three times with five replications. The results are expressed as an optical density ratio of the treatment to control. All data are presented as means ± SD.

Another data set can be described thus: MTT viability, HFIG. As to conditions: human, HFIG (HFIB-G) gingival fibroblasts, 1000 µM (IC50 exceeded 1000 µM), read-out: viability ± standard deviation at 1000 µM. Type of data set: cell-based, human. How it is done: as §1, §2
The nature of another data set: MTT viability, HT29. Type of data set: cell-based, human. As to conditions: human, HT29 colorectal adenocarcinoma cells, 1000 µM (IC50 exceeded 1000 µM), read-out: viability ± standard deviation at 1000 µM. The procedure: as §1, §2
Data set [1] deals with Enterococcus faecalis ATCC 51299. Set-up: method as in doi:10.1002/ffj.3238. Conditions: data presented by the authors before; cited from earlier work.
The test system of data set [2] is Enterococcus faecium ATCC 35667. Set-up: method as in doi:10.1002/ffj.3238. Conditions: data presented by the authors before; cited from earlier work.
For data set [3], the system named is Promyelocytic Leukaemia HL-60. Briefly: MTT viability, HL-60. Type of data set: cell-based, human. As to conditions: HL-60, MTT, range 10–1000 µM, read-out: half maximal inhibitory concentration (IC50), interpolated. How it is done:
as §1, §2

Data set [4] concerns Escherichia coli ATCC 25922. More on the design: method as in doi:10.1002/ffj.3238. As to conditions: data presented by the authors before; cited from earlier work.
Data set [5] concerns Staphylococcus aureus ATCC 43300. Set-up: method as in doi:10.1002/ffj.3238. Conditions: data presented by the authors before; cited from earlier work.
For data set [6], the system named is Acinetobacter baumannii ATCC 19606. More on the design: method as in doi:10.1002/ffj.3238. As to conditions: data presented by the authors before; cited from earlier work.
A short description of another data set: MTT viability, MEWO. Conditions: human, MEWO malignant melanoma cells, 1000 µM (IC50 exceeded 1000 µM), read-out: viability ± standard deviation at 1000 µM. Type of data set: cell-based, human. How it is done:
as §1, §2

The next data set is described as follows: MTT viability, HaCaT. Type of data set: cell-based, human. Conditions: human, HaCaT keratinocytes, 1000 µM (IC50 exceeded 1000 µM), read-out: viability ± standard deviation at 1000 µM. The procedure:
as §1, §2

Data set [7] relates to Klebsiella pneumoniae ATCC 700603. Set-up: method as in doi:10.1002/ffj.3238. Conditions: data presented by the authors before; cited from earlier work.
Data set [8] deals with Enterococcus faecalis ATCC 51299. Briefly: Micro-dilution broth MIC, Enterococcus faecalis. Conditions: ATCC51299, 24 h, 37 °C, read-out: Minimum Inhibitory Concentrations MIC. Type of data set: cell-based. How it is done:
(§3) The standard strains, Gram-positive: Staphylococcus aureus ATCC […], Enterococcus faecalis Van B ATCC 51299 and Enterococcus faecium VA sensitive ATCC 35667, and Gram-negative: Escherichia coli ATCC 25922, Klebsiella pneumoniae ATCC 700603 and Acinetobacter baumannii ATCC 19606, came from a collection of the Environmental Biology Department, Medical University of Łódź. The standard strains were cultivated in Columbia Agar Medium and incubated at 37 °C for 24 h in aerobic conditions.
(§4) The antibacterial activity of the racemates and E/Z-mixtures was investigated using the micro‑dilution broth method. The compounds were diluted in ethanol. This stock solution was mixed with 100 µL of Mueller-Hinton broth to obtain concentrations from 10 µg/mL to 80 µg/mL. The mixtures were then transferred to 96-well microtiter plates. The microbial suspension was standardised to a cell density of 1.5 × 10^8 CFU, which was equal to an optical density of 0.5 on the Mc Farland scale by a bio-Merieux densitometer; one well was filled with broth only to act as a control for strain growth.
Background: In broth dilution the organism is exposed to a series of concentrations in liquid medium.

The test system of the next data set is Fibroblasts HFIG. Briefly: MTT viability, HFIG. Type of data set: cell-based, human. Conditions: Homo sapiens, Fibroblast, 24 h, range 10–1000 µM, read-out: half maximal inhibitory concentration (IC50), interpolated. The procedure: as §1, §2
Data set [9] concerns Enterococcus faecium ATCC 35667. Briefly: Micro-dilution broth MIC, Enterococcus faecium. Type of data set: cell-based. As to conditions: ATCC35667, 24 h, 37 °C, read-out: Minimum Inhibitory Concentrations MIC. How it is done:
as §3, §4

Data set [10] concerns Staphylococcus aureus ATCC 43300. The data set can be described thus: Micro-dilution broth MIC, Staphylococcus aureus. Type of data set: cell-based. As to conditions: ATCC43300, 24 h, 37 °C, read-out: Minimum Inhibitory Concentrations MIC. The procedure:
as §3, §4

For data set [11], the system named is Klebsiella pneumoniae ATCC 700603. Briefly: Micro-dilution broth MIC, Klebsiella pneumoniae. Type of data set: cell-based. As to conditions: ATCC700603, 24 h, 37 °C, read-out: Minimum Inhibitory Concentrations MIC. How it is done:
as §3, §4

Data set [12] concerns Acinetobacter baumannii ATCC 19606. Briefly: Micro-dilution broth MIC, Acinetobacter baumannii. As to conditions: ATCC19606, 24 h, 37 °C, read-out: Minimum Inhibitory Concentrations MIC. Type of data set: cell-based. The procedure:
as §3, §4

Another data set has as its system Malignant Melanoma MEWO. The data set can be described thus: MTT viability, MEWO. Type of data set: cell-based, human. As to conditions: Homo sapiens, 24 h, range 10–1000 µM, read-out: half maximal inhibitory concentration (IC50), interpolated. The procedure:
as §1, §2

The test system of the next data set is Keratinocytes HaCaT. The data set can be described thus: MTT viability, HaCaT. Type of data set: cell-based, human. Conditions: Homo sapiens, 24 h, range 10–1000 µM, read-out: half maximal inhibitory concentration (IC50), interpolated. The procedure: as §1, §2
Data set [13] has as its system Escherichia coli ATCC 25922. The data set can be described thus: Micro-dilution broth MIC, Escherichia coli. Type of data set: cell-based. Conditions: ATCC25922, 24 h, 37 °C, read-out: Minimum Inhibitory Concentrations MIC. The procedure:
as §3, §4

Like-named read-outs stand apart in the source and are kept apart here.

The term viability denotes a read-out of living cells in per cent, often relative to untreated cells.

With `C=CC(C)(O)CCC=C(C)C(C)CCCC(C)C` (stereo not shown) [Compound 14], the viability at 24 h, 1000 µM came to 65% in “MTT viability, IEC6”; 99% in “MTT viability, HFIG”; 112% in the data set “MTT viability, HT29”; 99% in “MTT viability, MEWO”; 106% in the data set “MTT viability, HaCaT”. The “Minimum Inhibitory Concentrations MIC” value in data set [1] is 38 µg/mL; in [2] it was 36 µg/mL; in data set [4], 38 µg/mL; in data set [5], 48 µg/mL; in data set [6] it was 28 µg/mL; in data set [7] it was 18 µg/mL. Besides, the IC50 in data set [3] (Homo sapiens, HL-60, 24 h) was 750 µM.
On to `C=CC(C)(O)C(C)CC(C)CCC=C(C)C` (stereo not shown) [Compound 17], for which the viability at 24 h, 1000 µM in the data set “MTT viability, IEC6” was found to be 98%; in “MTT viability, HFIG”, 87%; in the data set “MTT viability, HT29”, 108%; in “MTT viability, MEWO”, 112%; in “MTT viability, HaCaT”, 95%. Also, the “Minimum Inhibitory Concentrations MIC” value in data set [1] was 38 µg/mL; in data set [2], 38 µg/mL; in data set [4] it was 46 µg/mL; in [5], 48 µg/mL; in data set [6], 16 µg/mL; in [7], 18 µg/mL. In data set [3] (Homo sapiens, HL-60, 24 h), the IC50 is 750 µM.
As to `C=CC(C)(O)CCC=CC(C)CCC=C(C)C` (stereo not shown) [Compound 13], the viability at 24 h, 1000 µM in the data set “MTT viability, IEC6” stood at 96%; in “MTT viability, HFIG” it was 87%; in the data set “MTT viability, HT29”, 99%; in the data set “MTT viability, MEWO” it was 83%; in “MTT viability, HaCaT”, 87%. The “Minimum Inhibitory Concentrations MIC” value is listed as 42 µg/mL in [1]; 38 µg/mL in data set [2]; 40 µg/mL in [4]; 46 µg/mL in [5]; 22 µg/mL in data set [6]; 20 µg/mL in data set [7]. Further, the IC50 in data set [3] (Homo sapiens, HL-60, 24 h) was determined as 400 µM.
As to `C=CC(C)(O)CCC=C(C)C(C)CCC=C(C)C` (stereo not shown) [Compound 12], the viability at 24 h, 1000 µM in the data set “MTT viability, IEC6” turned out to be 73%; in “MTT viability, HFIG”, 110%; in “MTT viability, HT29”, 97%; in “MTT viability, MEWO” it was 97%; in the data set “MTT viability, HaCaT” it was 101%. For the same compound, the “Minimum Inhibitory Concentrations MIC” value is recorded as 46 µg/mL in data set [1]; 42 µg/mL in [2]; 40 µg/mL in [4]; 48 µg/mL in [5]; 26 µg/mL in data set [6]; 28 µg/mL in data set [7]. Also, the IC50 in [3] (Homo sapiens, HL-60, 24 h) is 500 µM.
Take `C=CC(C)(O)CCC(C)CCC=C(C)C` (stereo not shown) [Compound 16]: the viability at 24 h, 1000 µM in “MTT viability, IEC6” came to 113%; in the data set “MTT viability, HFIG”, 106%; in “MTT viability, HT29” it was 102%; in “MTT viability, MEWO”, 100%; in “MTT viability, HaCaT”, 89%. Besides, the “Minimum Inhibitory Concentrations MIC” value is 38 µg/mL in data set [1]; 36 µg/mL in data set [2]; 32 µg/mL in data set [4]; 48 µg/mL in data set [5]; 22 µg/mL in data set [6]; 24 µg/mL in data set [7]. The IC50 is 950 µM in data set [3] (24 h) and roughly 1000 µM in data set [3] (Homo sapiens, HL-60, 24 h).
As for `CC(=O)CCC=C(C)CCC=C(C)C` [Geranyl acetone (1), geranyl acetone, reference compound], the viability at 24 h, 1000 µM was 79% in “MTT viability, IEC6”; 82% in the data set “MTT viability, HFIG”; 98% in “MTT viability, HT29”; 93% in “MTT viability, MEWO”; 89% in “MTT viability, HaCaT”. For the same compound, the “Minimum Inhibitory Concentrations MIC” value in data set [1] is 36 µg/mL; in data set [2], 28 µg/mL; in data set [4], 26 µg/mL; in data set [5] it was 48 µg/mL; in [6], 18 µg/mL; in data set [7], 18 µg/mL. Also, the IC50 in [3] (Homo sapiens, HL-60, 24 h) was roughly 295 µM.
On to `CC(=O)OCC=C(C)CCC=C(C)C(C)CCCC(C)C` (stereo not shown) [Compound 32, 3,7,8,12-Tetramethyltrideca-2,6-dien-1-yl acetate], for which the MIC in data set [8] stood at 22 µg/mL; in [9] it was 20 µg/mL; in data set [10] it was 28 µg/mL; in [11] it was 18 µg/mL; in data set [12] it was 22 µg/mL; in [13] it was 28 µg/mL. Moreover, the viability at 24 h, 1000 µM in “MTT viability, IEC6” is 92%; in “MTT viability, HT29”, 103%. In addition, the IC50 with Fibroblasts HFIG was 980 µM; in data set [3] (Homo sapiens, HL-60, 24 h) it was 278 µM; with Malignant Melanoma MEWO, 800 µM; in the data set on Keratinocytes HaCaT, 950 µM.
